ChEMBL document CHEMBL1177814, “Antitumor agents 278. 4-Amino-2H-benzo[h]chromen-2-one (ABO) analogs as potent in vitro anti-cancer agents” (2010)

Tests used:
Type in all cases: functional
ZR-75-1 = assay: Cytotoxicity against human ZR-75-1 cells after 72 hrs by SRB assay; settings: ZR-75-1, 72 h, read-out: ED50 (the source's name)
SK-BR-3 = assay: Cytotoxicity against human SK-BR-3 cells after 72 hrs by SRB assay; settings: SK-BR-3, 72 h, read-out: ED50 (the source's name)
DU-145 = assay: Cytotoxicity against human DU145 cells after 72 hrs by SRB assay; settings: DU-145, 72 h, read-out: ED50 (the source's name)
MDA-MB-231 = assay: Cytotoxicity against human MDA-MB-231 cells after 72 hrs by SRB assay; settings: MDA-MB-231, 72 h, read-out: ED50 (the source's name)
KB = assay: Cytotoxicity against human KB cells after 72 hrs by SRB assay; settings: read-out: ED50 (the source's name)
[1] = Cytotoxicity against human KBVIN cells after 72 hrs by SRB assay; settings: read-out: ED50 (the source's name)
A549 = assay: Cytotoxicity against human A549 cells after 72 hrs by SRB assay; settings: A549, 72 h, read-out: ED50 (the source's name)

Row | SMILES | EC50 (ZR-75-1) [nM] | EC50 (SK-BR-3) [nM] | EC50 (DU-145) [nM] | EC50 (MDA-MB-231) [nM] | EC50 (KB) [nM] | EC50 [1] [nM] | EC50 (A549) [nM]
1 | O=c1cc(N2CCCCC2)c2ccc3ccccc3c2o1 | > 30000 | > 30000 | > 30000 | 30000 | > 30000 | 10900 | > 30000
2 | O=c1cc(Nc2ccccc2Br)c2ccc3ccccc3c2o1 | 380 | 260 | 230 | 2600 | 160 | 150 | 190
3 | Cc1cccc(Nc2cc(=O)oc3c2ccc2ccccc23)c1 | 80 | 150 | 140 | 760 | 140 | 140 | 150
4 | COc1cccc(Nc2cc(=O)oc3c2ccc2ccccc23)c1 | 500 | 300 | 270 | 1300 | 220 | 170 | 290
5 | O=c1cc(Nc2cccc(Br)c2)c2ccc3ccccc3c2o1 | > 30000 | > 30000 | > 30000 | > 30000 | > 30000 | > 30000 | > 30000
6 | O=c1cc(NC2CC2)c2ccc3ccccc3c2o1 | 19500 | 20800 | 9600 | 10000 | 7800 | 9900 | 29800
7 | O=c1cc(NC2CCCCC2)c2ccc3ccccc3c2o1 | 5800 | 1300 | 970 | 4100 | 610 | 430 | 720
8 | COC(=O)CNc1cc(=O)oc2c1ccc1ccccc12 | 6700 | 3800 | 4100 | 4200 | 4600 | 3100 | 4700
9 | O=c1cc(Nc2ccc(Br)cc2)c2ccc3ccccc3c2o1 | 3100 | 500 | 520 | 6800 | 410 | 470 | 720
10 | Cc1ccccc1Nc1cc(=O)oc2c1ccc1ccccc12 | 4300 | 1600 | 1300 | 8300 | 2100 | 840 | 1300
11 | COc1ccccc1Nc1cc(=O)oc2c1ccc1ccccc12 | 4700 | 640 | 760 | 7300 | 500 | 470 | 600
12 | CCc1cccc2c1ccc1c(NCC(=O)N(C)OC)cc(=O)oc12 | 18200 | 17400 | 16200 | > 30000 | 21500 | 19700 | 17600
13 | O=c1cc(Nc2cccc3ccccc23)c2ccc3ccccc3c2o1 | 530 | 320 | 300 | 470 | 270 | 200 | 250
14 | CCCN(CCC)c1cc(=O)oc2c1ccc1ccccc12 | > 30000 | > 30000 | > 30000 | 30000 | > 30000 | 20800 | > 30000
15 | CON(C)C(=O)CNc1cc(=O)oc2c1ccc1ccccc12 | 480 | 4500 | 3200 | 5800 | 2200 | 3000 | 3100
16 | O=c1cc(Nc2ccccc2)c2ccc3ccccc3c2o1 | 910 | 1600 | 820 | 270 | 440 | 500 | 980
17 | Cc1ccc(Nc2cc(=O)oc3c2ccc2ccccc23)cc1 | 13000 | 380 | 370 | 15300 | 220 | 170 | 250
18 | CNc1cc(=O)oc2c1ccc1ccccc12 | > 30000 | > 30000 | > 30000 | > 30000 | > 30000 | > 30000 | > 30000
19 | CCCNc1cc(=O)oc2c1ccc1ccccc12 | > 30000 | > 30000 | > 30000 | 19800 | > 30000 | 10600 | > 30000
20 | CCc1ccc(Nc2cc(=O)oc3c2ccc2ccccc23)cc1 | 790 | 300 | 300 | 1400 | 280 | 180 | 200
21 | COc1ccc(Nc2cc(=O)oc3c2ccc2ccccc23)cc1 | 10 | 130 | 110 | 20 | 110 | 130 | 170
22 | O=c1cc(Nc2ccc(F)cc2)c2ccc3ccccc3c2o1 | 3200 | 1100 | 780 | > 30000 | 1200 | 510 | 810
23 | O=c1cc(N2CCOCC2)c2ccc3ccccc3c2o1 | 3900 | > 30000 | > 30000 | > 30000 | > 30000 | > 30000 | > 30000
24 | Cc1cccc2c1ccc1c3occ(C)c3c(=O)oc21 | 950 | 950 | > 30000 | > 30000 | > 30000 | > 30000 | > 30000
